Experimental data as given in PMC11003968, “Identification of small molecules affecting the interaction between human hemoglobin and Staphylococcus aureus IsdB hemophore” (Scientific Reports, 2024).
Values after ≈ are worked out from the molar mass of the structure shown. “Also recorded” adds a separate entry of the source. Where two headings read alike, the source gives them in different places. Where a SMILES comes first, the peptide text is derived from it. The star is where a group is joined. Boc = CC(C)(C)OC(=O)*

How the values were obtained:
oxyHb = oxyHb (Homo sapiens, UniProt P68871+P69905); test: Effect of compounds on the oxyHb absorption spectrum (oxidation of oxyHb to metHb); format: biochemical; details: 1 mM compound, 10 µM oxyHb, 4 °C
Experimental: Absorption spectra of the commercial compounds alone or in the presence of oxyHb were recorded with a microplate reader (TECAN Spark® 10 M) in a 384-well, UV-transparent microplate (Greiner UV-STAR® plate—781801). The compounds were diluted in binding buffer to a 2 mM concentration, and the pH of the solutions was adjusted in the range 6.5–7.5. Compounds were then tested at 1 mM concentration to assess for any absorbance around 450 nm that might interfere with the immunoassay. The effect of compounds on the oxyHb spectrum was assessed under the same conditions in the presence of 10 µM oxyHb. […] All the incubation steps were performed at 4 °C, as in the immunoassay. Spectra were subtracted from the contribution of the blank and the compound.
Absorption spectra of the compounds in solution were collected between 350 and 700 nm to exclude any interference with the determination of Hb oxidation (vide infra) and with the absorbance measurement at 450 nm of the immunoassay (Fig. S4). The absorption spectra of Hb solutions were collected in the Q bands region, between 450 and 650 nm, and compounds were added at a final concentration of 1 mM and incubated for 2 h at 4 °C, before the acquisition of the final spectrum (Fig. S5). These Hb absorption bands are sensitive to the redox status of the protein and thus allowed to ascertain whether the tested compounds interfere with the analysis by accelerating the oxidation of oxyHb to metHb, which in turn is susceptible to heme extraction by IsdB, thus introducing an artifact in the assay.

Compound solubilisation = format: physicochemical; details: for solubility (in words): solvent as stated in the sentence
Experimental: The commercial compounds were solubilized in aqueous solutions to reach a 50 mM concentration, taking advantage of the pH and concentration-solubility profile estimated by Chemicalize (https://chemicalize.com/ developed by ChemAxon). When the molecules resulted partially or completely insoluble, the pH was adjusted based on their estimated pH-solubility profiles using either HCl or NaOH concentrated stocks. A cycle of sonication with an ultrasonic bath (Bormac CE-5700, 41300303) was performed for those compounds that resulted insoluble after pH adjustment. If sonication was insufficient, compounds were also heated in a thermoblock at 60 °C for ten minutes. For the compounds that were still not soluble, D6-DMSO was added. For some compounds, complete solubilization required to decrease the concentration of the stock solution. In Table 2 are reported the compounds that required dilution and/or addition of DMSO for solubilization.
(§1) The in-house synthesized compounds were solubilized at 100 mM concentration in D6-DMSO. We indicated with an asterisk (*) the in-house synthesized compounds to distinguish them from the commercial ones. […]. Molecules that resulted partially or completely insoluble were subjected to the same procedure followed for the commercial molecules, except for pH adjustments. The compounds that were highly insoluble were produced as TRIS salts.

[1] = Stability of dissolved compound by NMR and liquid chromatography; format: physicochemical
Experimental: as §1

[2] = molecular target: T1, IsdB:Hb complex (Y165A IsdB, oxyHb) (Homo sapiens, UniProt P68871+P69905); test: IsdB-based immunoassay for IsdB:Hb complex formation (screening of potential inhibitors); format: binding, Staphylococcus aureus IsdB; human Hb; details: 30 µM oxyHb; for average percent of Hb bound to IsdB: commercial compounds at 1 mM, relative to negative control; for percentage of IsdB-bound Hb: in-house synthesized compounds at 1 mM
T1 construct: made in house
Experimental: Commercial and synthesized compounds were tested at 1 mM concentration.
Figure 6 Screening of the in silico identified compounds by the IsdB-based immunoassay. […] The lines at 100% and 50%, drawn as reference, were calculated from the absorbance signal at 450 nm measured on the negative control well (i.e. oxyHb incubated without the addition of compounds). Each measurement is the average of at least 2 replicates.
Each measurement is the average of at least two replicates. […] Color code indicates derivatives from a common parent compound indicated with the asterisk.

HbCO = HbCO (Homo sapiens, UniProt P68871+P69905); test: STD-NMR binding to Hb; details: 20 µM Hb (heme), 25 °C; for quality of the peaks in the STD spectrum: 1 mM commercial compound; for binding to HbCO by STD-NMR (peaks in STD spectra): 1 mM compound
[3] = 50% D6-DMSO final concentration

## NC(=O)C1CCN(CC(O)COc2ccc(OCC(O)CN3CCC(C(N)=O)CC3)cc2)CC1 (centres unmarked) [Compound C12]
oxyHb
  oxidation of Hb upon a 2-h incubation: small effects

## NNC(=O)C(=NNc1ccccc1C(=O)NN)C(=O)NN [Compound C17]
oxyHb
  oxidation of Hb upon a 2-h incubation: small effects
Compound solubilisation; [3]
  Stock H2O: 25 (50% D6-DMSO final concentration) mM

## CC(C)CC(NC(=O)C(Cc1ccccc1)NC(=O)CNC(=O)CNC(=O)OC(C)(C)C)C(=O)NC(CCCN=C(N)N)C(=O)O (centres unmarked) [Compound C28] (Boc-GGFLR-OH; configuration not given here)
oxyHb
  oxidation of Hb upon a 2-h incubation: small effects
Compound solubilisation; [3]
  Stock H2O: 25 (50% D6-DMSO final concentration) mM

## NC(=O)Cn1cc(NC(=O)NC2CCC(O)CC2)cn1 (centres unmarked) [Compound C34]
Compound solubilisation
  Stock H2O: 33 (50% D6-DMSO final concentration) mM

## O=C(CSc1nnc(-c2c[nH]c3ccccc23)o1)Nc1ccc(C(=O)O)cc1 [Compound C35]
Compound solubilisation; aqueous buffer, kinetic from dmso stock, 50 mM HEPES buffer, pH 7.6, diluted from 100 mM DMSO stock, read-out: concentration at which the compound was soluble
  solubility: 500 µM (≈ 197 µg/mL)
Compound solubilisation
  solubility (in words): poorly soluble in water
[1]; dissolved in D6-DMSO
  stability by NMR and liquid chromatography: stable
[1]; dissolved in alkaline aqueous solution
  stability in solution: underwent a rearrangement

## Cc1[nH]ncc1C(=O)NCc1cc(OC2CCNC2)ccn1 (centres unmarked) [Compound C41]
[2]
  average percent of Hb bound to IsdB: lower than 55%
HbCO
  quality of the peaks in the STD spectrum: very weak peaks
  binding to HbCO by STD-NMR (peaks in STD spectra): gave peaks in the STD spectra; also recorded: only a methyl group was binding to Hb

## NC(=O)NC(=O)CCCSc1nnc(N)s1 [Compound C44]
[2]
  average percent of Hb bound to IsdB: lower than 55%
  percentage of IsdB-bound Hb: above 60%
Compound solubilisation; [3]
  Stock H2O: 44 (50% D6-DMSO final concentration) mM
Compound solubilisation
  solubility (in words): solubility issues
Compound solubilisation; listed as C44*
  solubility (in words): difficult to dissolve in DMSO
HbCO
  quality of the peaks in the STD spectrum: very weak peaks
  binding to HbCO by STD-NMR (peaks in STD spectra): gave peaks in the STD spectra

## NC(=O)COc1ccc(CNC2CCCN(c3cccnn3)C2)cc1 (centres unmarked) [Compound C50]
[2]
  average percent of Hb bound to IsdB: lower than 55%
HbCO
  binding to HbCO by STD-NMR (peaks in STD spectra): no peaks were observed

## COC(=O)c1[nH]n(-c2ccc(C(=O)O)cc2)c(=O)c1CCO [Compound C53]
[2]
  average percent of Hb bound to IsdB: lower than 55%
  percentage of IsdB-bound Hb: above 60%
Compound solubilisation
  solubility (in words): solubility issues
HbCO
  quality of the peaks in the STD spectrum: very weak peaks
  binding to HbCO by STD-NMR (peaks in STD spectra): gave peaks in the STD spectra
HbCO; listed as C53*
  binding to HbCO by STD-NMR (peaks in STD spectra): confirmed binding to HbCO

## CC(C)(Sc1nnc(-c2c[nH]c3ccccc23)o1)C(=O)Nc1ccc(C(=O)O)cc1 [Compound C59]
Compound solubilisation
  solubility (in words): poorly soluble

## Cn1cc(-c2nnc(SCC(=O)Nc3ccc(C(=O)O)cc3)o2)c2ccccc21 [Compound C61]
Compound solubilisation
  solubility (in words): poorly soluble

## O=C(CSc1nnc(-c2c[nH]c3ncccc23)o1)Nc1ccc(C(=O)O)cc1 [Compound C63]
Compound solubilisation
  solubility (in words): poorly soluble

## O=C(O)Cn1cc(-c2nnc(SCC(=O)Nc3ccc(C(=O)O)cc3)o2)c2ccccc21 [Compound C65]
Compound solubilisation
  solubility (in words): poorly soluble
